The values below are quoted from earlier work in patent US20210361561A1, “A pouch product suitable for application in an oral cavity” (priority 2019, published 2021).

One data set concerns the target CB1 receptors (Homo sapiens, UniProt P21554).
Another data set has as its target CB2 receptors (Homo sapiens, UniProt P34972). The settings on record: compared with CB1 receptors.

CB1 receptors, sequence (P21554 whole entry): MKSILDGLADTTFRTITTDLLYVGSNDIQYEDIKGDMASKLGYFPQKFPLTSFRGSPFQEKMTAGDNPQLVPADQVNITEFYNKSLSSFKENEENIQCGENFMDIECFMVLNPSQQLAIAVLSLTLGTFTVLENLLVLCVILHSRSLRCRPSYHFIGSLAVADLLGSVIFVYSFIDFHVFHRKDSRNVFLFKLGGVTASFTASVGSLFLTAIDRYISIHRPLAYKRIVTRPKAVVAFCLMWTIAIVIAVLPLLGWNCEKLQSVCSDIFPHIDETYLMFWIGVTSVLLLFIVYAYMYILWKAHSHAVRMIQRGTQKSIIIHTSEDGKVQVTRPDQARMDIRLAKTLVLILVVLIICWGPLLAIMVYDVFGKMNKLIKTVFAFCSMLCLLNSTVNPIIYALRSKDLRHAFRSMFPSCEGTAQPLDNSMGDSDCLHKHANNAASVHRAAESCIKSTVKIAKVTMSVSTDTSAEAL
CB2 receptors, sequence (P34972 whole entry): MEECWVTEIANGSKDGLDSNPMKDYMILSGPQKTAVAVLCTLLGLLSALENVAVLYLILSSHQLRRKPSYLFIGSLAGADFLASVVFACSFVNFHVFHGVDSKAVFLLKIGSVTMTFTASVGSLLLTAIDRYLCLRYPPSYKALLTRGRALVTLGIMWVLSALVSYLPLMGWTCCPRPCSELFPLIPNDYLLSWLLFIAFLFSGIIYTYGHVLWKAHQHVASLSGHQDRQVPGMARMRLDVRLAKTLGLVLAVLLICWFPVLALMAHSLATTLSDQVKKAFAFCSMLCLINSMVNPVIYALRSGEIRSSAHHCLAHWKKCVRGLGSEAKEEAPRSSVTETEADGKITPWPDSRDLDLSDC

Consider `CCCCCc1cc(O)c2c(c1)OC(C)(C)c1ccc(C)cc1-2` [CBN, 6,6,9-Trimethyl-3-pentyl-benzo[c]chromen-1-ol], for which the “activity at the CB1 receptors” value at CB1 receptors is recorded as “partial agonist”. The “affinities relative to THC” value at CB1 receptors (CB1 and CB2 receptors) is on record as “lower affinities relative to THC”. Besides, the “affinity to CB2 receptors” value on CB2 receptors is given as “higher affinity”.
